According to US20240317833A1, “NON-HLA RESTRICTED T CELL VACCINE FOR TCR GAMMA ALTERNATE READING FRAME PROTEIN (TARP) PROTEIN EXPRESSING CANCERS” (PDS BIOTECHNOLOGY CORPORATION, priority 2022, published 2024):
No end group written: not given here.

System: TARP antigen-specific T cells
Test: IFN-γ ELISPOT on splenocytes of vaccinated HLA-A2 transgenic (AAD) mice, s.c. day 0 and day 7
Assay type: in vivo, HLA-A2 expressing transgenic mice (AAD mice)
Details: for response when used as a stimulatory peptide for the ELISPOT: HLA-A2 transgenic mouse model; for TARP 21-40 ELISPOT responses: FIG. 8; for TARP 29-37 (9V) ELISPOT responses: encapsulated in R-DOTAP nanoparticles, stimulatory peptide TARP 29-37 (9V) in water/sucrose
[1] = FIG. 6, formulated with R-DOTAP nanoparticles, stimulatory peptide SEQ ID NO:3 (9V), antigen dose 100 micrograms
[2] = FIG. 7, formulated with R-DOTAP nanoparticles, stimulatory peptide TARP 21-40 (SEQ ID NO:6), antigen dose 100 micrograms
[3] = formulated with R-DOTAP nanoparticles, two immunizations, stimulatory peptide TARP 21-40 (17V) in water/sucrose
[4] = FIG. 5, formulated in CFA, stimulatory peptide TARP 27-35 (SEQ ID NO:2), antigen dose 100 micrograms

Substance | antigen-specific ELISPOT responses [1] | antigen-specific ELISPOT responses [2] | TARP 21-40 ELISPOT responses [3] | TARP 29-37 (9V) ELISPOT responses (FIG. 9, two immunizations) | antigen-specific ELISPOT responses [4] | also measured
FLRNFSLMV (not fully specified) [SEQ ID NO:3] | no antigen-specific ELISPOT responses | no or very weak antigen-specific ELISPOT responses | no or very weak TARP 21-40 ELISPOT responses | did not appear to elicit any TARP 29-37 (9V) ELISPOT responses |  | response when used as a stimulatory peptide for the ELISPOT (FIG. 6): apparently inactive; ELISPOT responses to TARP 29-37 (9V) (FIG. 9, Complete Freund's Adjuvant (CFA), stimulatory peptide TARP 29-37 (9V)): Very weak or no ELISPOT responses
FVFLRNFSL (not fully specified) [SEQ ID NO:2] |  |  |  |  |  | response when used as a stimulatory peptide for the ELISPOT (FIG. 5): apparently inactive
KSS-FLRNFSLMV (not fully specified; palmitoylated; SITE 1 Palmitoyl modified residue) [SEQ ID NO:10, palmitoylated TARP 2 (29-37)] |  |  |  |  | no antigen-specific ELISPOT responses | 
KSS-RRLEHTFVFLRNFSLMLLRG (not fully specified; palmitoylated; SITE 1 Palmitoyl modified residue) [SEQ ID NO:13, palmitoylated TARP 6 (21-40)] | no antigen-specific ELISPOT responses | no or very weak antigen-specific ELISPOT responses | no or very weak TARP 21-40 ELISPOT responses |  | no antigen-specific ELISPOT responses | antigen-specific ELISPOT responses (FIG. 6, formulated in CFA, stimulatory peptide SEQ ID NO:3 (9V), antigen dose 100 micrograms): no antigen-specific ELISPOT responses; antigen-specific ELISPOT responses (FIG. 7, formulated in CFA, stimulatory peptide TARP 21-40 (SEQ ID NO:6), antigen dose 100 micrograms): no or very weak antigen-specific ELISPOT responses
RRLEHTFVFLRNFSLMLLRG (not fully specified) [SEQ ID NO:6] | no antigen-specific ELISPOT responses | no or very weak antigen-specific ELISPOT responses | no or very weak TARP 21-40 ELISPOT responses | did not appear to elicit any TARP 29-37 (9V) ELISPOT responses | no antigen-specific ELISPOT responses | response when used as a stimulatory peptide for the ELISPOT (FIG. 7): inactive or very weakly active; TARP 21-40 ELISPOT responses (Complete Freunds Adjuvant (CFA), stimulated with TARP 21-40 (SEQ ID NO:6)): very weakly active
SSEEEDE-RRLEHTFVFLRNFSLMLLRG (SSEEEDERRLEHTFVFLRNFSLMLLRG; Anionic amino acids) [SEQ ID NO:21] | no antigen-specific ELISPOT responses | no or very weak antigen-specific ELISPOT responses | no or very weak TARP 21-40 ELISPOT responses |  | no antigen-specific ELISPOT responses | mice responding to vaccination (FIG. 7, R-DOTAP nanoparticles, antigen dose 100 micrograms): two of six
